Measured values published in ChEMBL document CHEMBL1146660 (Bioorg Med Chem Lett, 2004).

Experiments:
[1] = target: T1, M-phase inducer phosphatase 2 (Homo sapiens, UniProt P30305); test: Concentration required to inhibit human Cell division cycle 25B activity
T1 sequence (P30305 whole entry): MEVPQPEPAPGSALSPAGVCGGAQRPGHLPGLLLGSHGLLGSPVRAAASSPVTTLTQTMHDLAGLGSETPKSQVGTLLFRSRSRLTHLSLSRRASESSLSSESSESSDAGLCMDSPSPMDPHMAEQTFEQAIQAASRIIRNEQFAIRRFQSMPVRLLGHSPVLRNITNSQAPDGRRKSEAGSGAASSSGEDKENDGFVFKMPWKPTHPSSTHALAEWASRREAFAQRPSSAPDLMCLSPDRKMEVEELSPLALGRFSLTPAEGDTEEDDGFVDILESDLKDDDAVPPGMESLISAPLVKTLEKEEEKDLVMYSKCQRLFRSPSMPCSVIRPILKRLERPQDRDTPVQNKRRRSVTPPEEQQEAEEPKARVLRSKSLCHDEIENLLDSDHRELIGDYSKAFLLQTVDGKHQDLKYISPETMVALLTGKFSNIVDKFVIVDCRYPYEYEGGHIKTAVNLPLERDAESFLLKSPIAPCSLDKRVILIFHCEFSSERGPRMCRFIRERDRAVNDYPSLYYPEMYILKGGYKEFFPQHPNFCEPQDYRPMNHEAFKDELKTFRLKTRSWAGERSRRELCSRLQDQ

[2] = target: T2, M-phase inducer phosphatase 1 (Homo sapiens, UniProt P30304); test: Concentration required to inhibit human Cell division cycle 25A activity
T2 sequence (P30304 whole entry): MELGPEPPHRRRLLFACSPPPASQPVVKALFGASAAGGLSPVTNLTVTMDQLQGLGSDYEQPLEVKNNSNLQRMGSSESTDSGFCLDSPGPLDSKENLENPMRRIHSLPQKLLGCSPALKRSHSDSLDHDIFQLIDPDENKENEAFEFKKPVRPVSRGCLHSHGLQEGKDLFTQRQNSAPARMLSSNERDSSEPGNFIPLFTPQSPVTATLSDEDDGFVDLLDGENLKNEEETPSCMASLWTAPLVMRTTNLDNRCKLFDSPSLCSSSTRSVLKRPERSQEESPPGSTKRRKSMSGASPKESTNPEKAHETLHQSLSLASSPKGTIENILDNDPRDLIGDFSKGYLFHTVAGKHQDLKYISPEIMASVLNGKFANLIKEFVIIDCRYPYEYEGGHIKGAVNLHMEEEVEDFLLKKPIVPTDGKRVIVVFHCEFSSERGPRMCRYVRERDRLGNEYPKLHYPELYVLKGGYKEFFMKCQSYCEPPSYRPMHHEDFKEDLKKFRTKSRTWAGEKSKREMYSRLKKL

[3] = target: T2, M-phase inducer phosphatase 1; test: Concentration required to inhibit human Cell division cycle 25A activity; Value ranges from […] to […]

| IC50 [1] [µM] | IC50 [2] [µM] | SMILES | IC50 [3] [µM] |
| --- | --- | --- | --- |
| 8 | 5.5 | CC(C)CCC[C@@H](C)[C@H]1CCC2/C(=C/C(=O)O)CCC[C@@]21C (stereo partly drawn) |  |
|  |  | C=C1CC[C@H](O)C/C1=C/C=C1\CCC[C@@]2(C)C1CC[C@@H]2[C@H](C)CCCC(C)C (stereo partly drawn) | 0.89 |
